Blank lines part the entries; values can stand above or below the molecule they belong to.
Legend:
Rattus norvegicus [1] = assay: Dose which was not showing any cardiac effect in normal cholesterol rats upon peroral administration; assay type: functional
Rattus norvegicus [2] = assay: Percent change in serum LDL level was determined in hypercholesterolemic rats at 100 ug/Kg upon peroral administration; assay type: functional
Rattus norvegicus [3] = assay: Percent change in serum HDL level was determined in hypercholesterolemic rats at 100 ug/Kg upon peroral administration; assay type: functional
Rattus norvegicus [4] = assay: Minimum effective dose was determined in hypercholesterolemic rats for lowering total cholesterol level compared to control upon peroral administration; assay type: functional; settings: po, read-out: MED
Rattus norvegicus [5] = assay: Effective dose was determined in hypercholesterolemic rats for lowering total serum cholesterol compared to control upon peroral administration; assay type: functional; settings: po
[6] = target: T1, Thyroid hormone receptor beta (Rattus norvegicus, UniProt P18113); assay: Ability to inhibit the bound [125I]L-T3 rat liver Nuclear L-triiodothyronine receptor is determined in vitro.
T1 sequence (P18113 whole entry): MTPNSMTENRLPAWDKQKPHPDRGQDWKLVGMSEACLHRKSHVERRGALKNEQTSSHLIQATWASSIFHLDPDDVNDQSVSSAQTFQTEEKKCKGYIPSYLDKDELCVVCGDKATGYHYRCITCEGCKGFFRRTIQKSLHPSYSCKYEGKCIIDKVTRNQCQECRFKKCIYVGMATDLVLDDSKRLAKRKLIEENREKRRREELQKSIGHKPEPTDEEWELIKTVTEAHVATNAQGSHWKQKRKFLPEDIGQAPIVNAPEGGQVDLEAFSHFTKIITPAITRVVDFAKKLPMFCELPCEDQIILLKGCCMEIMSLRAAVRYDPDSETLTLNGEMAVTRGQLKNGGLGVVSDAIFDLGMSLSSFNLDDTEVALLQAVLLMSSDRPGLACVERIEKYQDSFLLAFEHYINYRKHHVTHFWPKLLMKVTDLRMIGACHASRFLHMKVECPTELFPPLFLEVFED

Rattus norvegicus [7] = assay: Percent change in serum LDL level was determined in hypercholesterolemic rats at 10 ug/Kg upon peroral administration; assay type: functional
Rattus norvegicus [8] = assay: Percent change in serum HDL level was determined in hypercholesterolemic rats at 10 ug/Kg upon peroral administration; assay type: functional
Rattus norvegicus [9] = assay: Percent change in serum HDL level was determined in hypercholesterolemic rats at 25 ug/Kg upon peroral administration; assay type: functional
Rattus norvegicus [10] = assay: Percent change in serum LDL level was determined in hypercholesterolemic rats at 25 ug/Kg upon peroral administration; assay type: functional

SMILES: N[C@@H](Cc1cc(I)c(Oc2ccc(O)c(I)c2)c(I)c1)C(=O)O [LIOTHYRONINE]
Dose (Rattus norvegicus [1]): <0.025 mg/kg | Change (Rattus norvegicus [2]): -65% | Change (Rattus norvegicus [3]): -8% | minimal effective dose (Rattus norvegicus [4]): 0.025 mg/kg | ED50 (Rattus norvegicus [5]): 0.1 mg/kg

SMILES: Cc1cc(NC(Cc2ccccc2)C(=O)O)cc(C)c1Oc1ccc(O)c(C(C)C)c1 (stereo unspecified)
IC50 [6]: 400 nM

SMILES: CC(C)c1cc(Oc2c(Cl)cc(NC(=O)C(=O)O)cc2Cl)ccc1O
Dose (Rattus norvegicus [1]): 10 mg/kg | minimal effective dose (Rattus norvegicus [4]): 0.0125 mg/kg | ED50 (Rattus norvegicus [5]): 0.05 mg/kg

SMILES: CCOC(=O)C(=O)Nc1cc(C)c(Oc2ccc(O)c(C(O)c3ccc(F)cc3)c2)c(C)c1 (stereo in doubt; 23a) [AXITIROME]
Change (Rattus norvegicus [7]): -73% | Dose (Rattus norvegicus [1]): >25 mg/kg | Change (Rattus norvegicus [8]): 0% | minimal effective dose (Rattus norvegicus [4]): < 0.001 mg/kg | ED50 (Rattus norvegicus [5]): 0.005 mg/kg

SMILES: Cc1cc(NC(=O)C(=O)O)cc(C)c1Oc1ccc(O)c(C(C)C)c1
Dose (Rattus norvegicus [1]): 10 mg/kg | minimal effective dose (Rattus norvegicus [4]): 0.01 mg/kg | ED50 (Rattus norvegicus [5]): 0.02 mg/kg | Change (Rattus norvegicus [9]): -5% | Change (Rattus norvegicus [10]): -67%

SMILES: CCOC(=O)C(=O)Nc1cc(C)c(Oc2ccc(OC)c(C(O)c3ccc(F)cc3)c2)c(C)c1 (stereo unspecified)
IC50 [6]: 34 nM

SMILES: CC(C)c1cc(Oc2c(Br)cc(SCC(=O)O)cc2Br)ccc1O
IC50 [6]: 1.5 nM

SMILES: CC(C)c1cc(Oc2c(Br)cc(OCC(=O)O)cc2Br)ccc1O
IC50 [6]: 0.1 nM

SMILES: CC(C)c1cc(Oc2c(Br)cc(CCC(=O)O)cc2Br)ccc1O
IC50 [6]: 0.11 nM

Other lines, results leading:

IC50 [6]: 58 nM
SMILES: CC(C)c1cc(Oc2c(Cl)cc(NC(Cc3ccccc3)C(=O)O)cc2Cl)ccc1O (stereo unspecified)

IC50 [6]: 1.1 nM
SMILES: CC(C)c1cc(Oc2c(Cl)cc(NCC(=O)O)cc2Cl)ccc1O

IC50 [6]: 12 nM
SMILES: Cc1cc(NCC(=O)O)cc(C)c1Oc1ccc(O)c(C(C)C)c1

IC50 [6]: 3.5 nM
SMILES: Cc1cc(SCC(=O)O)cc(C)c1Oc1ccc(O)c(C(C)C)c1

IC50 [6]: 550 nM
SMILES: Cc1cc(NC(C)C(=O)O)cc(C)c1Oc1ccc(O)c(C(C)C)c1 (stereo unspecified)

IC50 [6]: 0.31 nM
SMILES: CC(C)c1cc(Oc2c(I)cc(NCC(=O)O)cc2I)ccc1O

IC50 [6]: > 5000 nM
SMILES: Cc1cc(CCC(=O)O)cc(C)c1Oc1ccc(O)c(C(C)C)c1

IC50 [6]: 48 nM
SMILES: CC(Nc1cc(Cl)c(Oc2ccc(O)c(C(C)C)c2)c(Cl)c1)C(=O)O (stereo unspecified)
